Source: ChEMBL document CHEMBL1149160, “Bisguanidine, bis(2-aminoimidazoline), and polyamine derivatives as potent and selective chemotherapeutic agents against Trypanosoma brucei rhodesiense. Synthesis and in vitro evaluation” (J Med Chem, 2004)
pIC50: −log10 of the molar value.

Columns and labels:
[1] = test system: Trypanosoma brucei rhodesiense; assay: In vitro antitrypanosomal activity against Trypanosoma brucei rhodesiense; type: functional, organism-based
L6 [2] = assay: Ratio of cytotoxicity against L6 cells to that of antitrypanosomal activity against Trypanosoma brucei rhodesiense; type: functional
L6 [3] = assay: Cytotoxic activity against rat L6 cells; type: cell-based

pIC50 [1] | Structure (SMILES) | Ratio (L6 [2]) | pIC50 (L6 [3])
5.35 | N=C(N)c1cccc(/C=N/N=C(\N)N/N=C/c2cccc(C(=N)N)c2)c1 |  | 
 | c1cc(Nc2ccc(NC3=NCCN3)cc2)ccc1NC1=NCCN1 | 3072 | 
7.66 | N=C(N)Nc1ccc(Nc2ccc(NC(=N)N)cc2)cc1 | 29.5 | 
 | CCOC(CNC(=N)Nc1ccc(Cc2ccc(NC(=N)NCC(OCC)OCC)cc2)cc1)OCC | >554 | 
5.41 | O=C(NCCCN1CCN(C(=O)OCc2ccccc2)C1)OCc1ccccc1 | 27 | 3.97
7.31 | N=C(N)NCCCCCCCCCNC(=N)N | >5294 | < 3.58
5.41 | O=C(NCCCN(CCNC(=O)OCc1ccccc1)CCc1ccccc1)OCc1ccccc1 | 6.4 | 4.61
4.50 | CC(C)(C)OC(=O)/N=C(/C=C(/O)OC(C)(C)C)Nc1ccc(Cc2ccc(N/C(=N\C(=O)OC(C)(C)C)NC(=O)OC(C)(C)C)cc2)cc1 |  | 
4.33 | CN(CCCNC1=NCCN1)CCNC1=NCCN1 |  | 
6.34 | C(CCCCNC1=NCCN1)CCCNC1=NCCN1 | 9.4 | 5.38
4.56 | c1ccc(CCN(CCCNC2=NCCN2)CCNC2=NCCN2)cc1 |  | 
4.61 | CC(C)(C)OC(=O)/N=C(\NC(=O)OC(C)(C)C)Nc1ccc(S(=O)(=O)c2ccc(N/C(=N/C(=O)OC(C)(C)C)NC(=O)OC(C)(C)C)cc2)cc1 |  | 
5.14 | CC(C)(C)OC(=O)N1CCN(C(=O)OC(C)(C)C)C1=Nc1ccc(C(=O)c2ccc(N=C3N(C(=O)OC(C)(C)C)CCN3C(=O)OC(C)(C)C)cc2)cc1 |  | 
 | N=C(N)Nc1ccc(C(=O)c2ccc(NC(=N)N)cc2)cc1 | 13.1 | 
6.33 | CC(C)(C)OC(=O)/N=C(/C=C(/O)OC(C)(C)C)Nc1ccc(Nc2ccc(N/C(=N\C(=O)OC(C)(C)C)NC(=O)OC(C)(C)C)cc2)cc1 | 7.9 | 5.43
6.01 | C1CCC(/N=C(\NC2CCCCC2)N(CCCN=C(NC2CCCCC2)NC2CCCCC2)CCN=C(NC2CCCCC2)NC2CCCCC2)CC1 | >82 | < 4.08
4.86 | CC(C)(C)OC(=O)/N=C(\NC(=O)OC(C)(C)C)Nc1cccc(N2CCN(c3cccc(N/C(=N\C(=O)OC(C)(C)C)NC(=O)OC(C)(C)C)c3)CC2)c1 |  | 
4.15 | C1CNC(N2CCC(N3CCN(C4=NCCN4)CC3)CC2)=N1 |  | 
 | N=C(N)Nc1ccc(S(=O)(=O)c2ccc(NC(=N)N)cc2)cc1 | >51 | 
 | CCOC(CNC(=N)Nc1ccc(Nc2ccc(NC(=N)NCC(OCC)OCC)cc2)cc1)OCC | >767 | 

pIC50 [1] | Structure (SMILES) | Ratio (L6 [2]) | pIC50 (L6 [3])
4.94 | CC(C)(C)OC(=O)N1CCN(C(=O)OC(C)(C)C)C1=Nc1ccc(Cc2ccc(N=C3N(C(=O)OC(C)(C)C)CCN3C(=O)OC(C)(C)C)cc2)cc1 |  | 
4.31 | CCCCCCCCN=C(N)N |  | 
6.38 | CCCCC[P+](CCCCC)(CCCCC)c1ccc(C(=O)c2ccc([P+](CCCCC)(CCCCC)CCCCC)cc2)cc1.[Br-].[Br-] | 28.5 | 4.93
7.33 | N=C(N)NCCCCCCCCCCCCNC(=N)N | 13 | 6.20
6.60 | N=C(N)NCCCCCCCCNC(=N)N | >1100 | < 3.56
 | O=C(c1ccc(NC2=NCCN2)cc1)c1ccc(NC2=NCCN2)cc1 | >104 | 
4.70 | CCCCCCCCCN=C(N)N |  | 
3.95 | CCCNCCCNC1=NCCN1 |  | 
4.79 | N=C(N)NCCNCCNC(=N)N |  | 
6.57 | N=C(N)Nc1ccc(-c2ccc(NC(=N)N)cc2)cc1 | 172 | 4.33
4.07 | C1CNC(NCCNCCNC2=NCCN2)=N1 |  | 
5.85 | c1c[nH]c(Nc2ccc(Nc3ccc(Nc4ncc[nH]4)cc3)cc2)n1 | 80.7 | 3.95
4.53 | C(CNCCCNC1=NCCN1)CNC1=NCCN1 |  | 
4.71 | C(CCCNC1=NCCN1)CCNC1=NCCN1 |  | 
5.51 | CN(CCCNC(=O)OCc1ccccc1)CCNC(=O)OCc1ccccc1 | 41 | 3.89
4.52 | CC(C)(C)OC(=O)N1CCC(N2CCN(C(=O)OC(C)(C)C)CC2)CC1 |  | 
4.67 | N=C(N)NCCCNCCNC(=N)N |  | 
5.09 | N=C(N)NCCCCCCNC(=N)N | >37 | < 3.52
 | c1cc(NC2=NCCN2)ccc1Cc1ccc(NC2=NCCN2)cc1 | 71 | 
 | CC(C)(C)OC(=O)N1CCN(C(=O)OC(C)(C)C)C1=Nc1ccc(Nc2ccc(N=C3N(C(=O)OC(C)(C)C)CCN3C(=O)OC(C)(C)C)cc2)cc1 | 202 | 

pIC50 [1] | Structure (SMILES) | Ratio (L6 [2]) | pIC50 (L6 [3])
4.59 | O=C(c1ccc(Br)cc1)c1ccc(Br)cc1 | >9.4 | < 3.61
4.85 | O=C(NCCCN(CCO)CCNC(=O)OCc1ccccc1)OCc1ccccc1 | 8.3 | 3.94
5.15 | CC(=O)OCCN(CCCNC(=O)OCc1ccccc1)CCNC(=O)OCc1ccccc1 | >26 | < 3.72
4.21 | CN(CCN)CCCN |  | 
6.97 | C(CCCCCCNC1=NCCN1)CCCCCNC1=NCCN1 | 22 | 5.63
6.65 | C(CCCCNC1=NCCN1)CCCCNC1=NCCN1 | 71 | 4.80
4.24 | C1CC(N2CCNCC2)CCN1 |  | 
4.67 | N=C(N)NCCCNCCCNC(=N)N |  | 
4.90 | CC(C)(C)OC(=O)NCC/N=C(\S)N1CCC(N2CCN(/C(S)=N\CCNC(=O)OC(C)(C)C)CC2)CC1 |  | 
4.76 | NCCCN(CCN)CCc1ccccc1 | 12 | 3.67
 | N=C(N)Nc1ccc(Cc2ccc(NC(=N)N)cc2)cc1 | 17.4 | 
6.00 | O=C(NCCCN(CCNC(=O)OCc1ccccc1)CCc1c[nH]c2ccccc12)OCc1ccccc1 | 7.8 | 5.11
 | CC(C)(C)OC(=O)N1CCN(C(=O)OC(C)(C)C)C1=Nc1ccc(S(=O)(=O)c2ccc(N=C3N(C(=O)OC(C)(C)C)CCN3C(=O)OC(C)(C)C)cc2)cc1 | 21.7 | 
5.35 | N=C(N)NCCCN(CCNC(=N)N)CCc1ccccc1 | >43 | < 3.70
5.32 | O=C(CN1CCCN(C(=O)OCc2ccccc2)C1)OCc1ccccc1 | 18.6 | 4.05
4.16 | C(CNCCNC1=NCCN1)CNC1=NCCN1 |  | 
6.93 | c1cc(-c2ccc(NC3=NCCN3)cc2)ccc1NC1=NCCN1 | 881 | 3.98
5.62 | C1CCC(NC(=NCCCNCCN=C(NC2CCCCC2)NC2CCCCC2)NC2CCCCC2)CC1 |  | 
8.05 | N=C(N)c1ccc(/N=N/Nc2ccc(C(=N)N)cc2)cc1 [DIMINAZENE DIACETURATE] |  | 

Structure (SMILES) | pIC50 [1] | Ratio (L6 [2]) | pIC50 (L6 [3])
O=[N+]([O-])c1ccc(-c2ccc([N+](=O)[O-])cc2)cc1 | 4.38 |  | 
NCCCN(CCN)CCc1c[nH]c2ccccc12 | 4.86 |  | 
Nc1ccc(-c2ccc(N)cc2)cc1 [BENZIDINE] | 5.85 | >152 | < 3.66
CCCCCCCCCCCCNC(=N)N [DODINE] | 4.96 | 1.8 | 4.71
Nc1nc(N)nc(Nc2ccc([As]3SCC(CO)S3)cc2)n1 (stereo unspecified) [MELARSOPROL] | 5.26 | 3456 | 
